Converted amounts (≈) assume the structure as drawn.

Broadly, the MIC is the least concentration at which growth counts as inhibited. A higher MIC goes with a less susceptible organism.

Assay [1] has as its system Mycobacterium tuberculosis. Briefly: Antimicrobial activity against Mycobacterium bovis BCG under dormancy-inducing hypoxic condition for 14 days by MTT assay. It counts as functional. To be noted: variant bovis BCG, 336 h. Background: Formazan colour is commonly taken as a measure of viable cells.
The test system of assay [2] is Mycobacterium tuberculosis. Put plainly: Antimicrobial activity against Mycobacterium bovis BCG under aerobic condition for 7 days by MTT assay. The assay is classed as functional. Particulars: variant bovis BCG, 168 h.

On to `COC(c1ccc(O)cc1)C1NC(=O)[C@H](CCC(N)=O)N(C)C(=O)[C@H](CC(C)C)NC(=O)[C@@H](CCCNC(=N)N)NC(=O)[C@@H]([C@@H](C)O)NC(=O)[C@H](NC(=O)C(NC(=O)[C@H](O)[C@H](O)[C@H](CCCNC(=N)N)NC(=O)[C@@H](CC(N)=O)NC(=O)C(C)C(O)C(C)CC(C)C)C(C)C(C)C(N)=O)[C@@H](C)OC(=O)[C@@H]2CCCCN2C1=O` (some centres not stated) [NEAMPHAMIDE B], for which the MIC in assay [1] is 12.5 µg/mL (≈ 7.94 µM); in assay [2], 6.25 µg/mL (≈ 3.97 µM).

The values above are taken from ChEMBL document CHEMBL2046425, “Neamphamide B, new cyclic depsipeptide, as an anti-dormant mycobacterial substance from a Japanese marine sponge of Neamphius sp” (2012).
